The record followed here is ChEMBL document CHEMBL3817799, “N-Nitrosulfonamides: A new chemotype for carbonic anhydrase inhibition” (Bioorg Med Chem, 2016).

Molecules are shown by their SMILES.

The nature of assay [1]: Inhibition of Malassezia globosa beta carbonic anhydrase preincubated for 15 mins prior to testing by stopped flow CO2 hydrase assay.
A further assay deals with Carbonic anhydrase 2 (Homo sapiens, UniProt P00918). The assay is described as follows: Inhibition of human recombinant carbonic anhydrase 2 preincubated for 15 mins prior to testing by stopped flow CO2 hydrase assay.
The next assay concerns Malassezia globosa. The assay is described as follows: Potency index, ratio of acetazolamide Ki to compound Ki for Malassezia globosa beta carbonic anhydrase.
The next assay addresses Carbonic anhydrase 9 (Homo sapiens, UniProt Q16790). Put plainly: Inhibition of human recombinant carbonic anhydrase 9 preincubated for 15 mins prior to testing by stopped flow CO2 hydrase assay.

With `Nc1nnc(S(=O)(=O)N[N+](=O)[O-])s1`, the Ki amounted to 4.5 µM in assay [1], 4.52 µM at Carbonic anhydrase 2 and 0.84 µM at Carbonic anhydrase 9. For the same molecule, in the assay with Malassezia globosa, the Ratio Ki was found to be 10.
Turning to `CN(C)c1ccc(S(=O)(=O)N[N+](=O)[O-])cc1`, the inhibition constant (Ki) in assay [1] was 0.22 µM; on Carbonic anhydrase 2, more than 50 µM. The Ratio Ki in the assay on Malassezia globosa worked out at 10.
`N#CCNc1ccc(S(=O)(=O)N[N+](=O)[O-])cc1`: the inhibition constant (Ki) in assay [1] came to 3.49 µM; at Carbonic anhydrase 2, 1.35 µM; at Carbonic anhydrase 9 it was 2 µM. Further, the Ratio Ki with Malassezia globosa stood at 10.
In the case of `CC(=O)Nc1nnc(S(N)(=O)=O)s1` [ACETAZOLAMIDE], in assay [1], the Ki came out at 74 µM.
Consider `NCc1ccc(S(=O)(=O)N[N+](=O)[O-])cc1`, for which the inhibitory constant (Ki) in assay [1] is 8.09 µM; on Carbonic anhydrase 9, 5.99 µM.
Consider `Nc1cccc(S(=O)(=O)N[N+](=O)[O-])c1`, for which the figures for the inhibition constant Ki (in assay [1]; on Carbonic anhydrase 2; on Carbonic anhydrase 9) were 2.75 µM, 5.11 µM and more than 50 µM, respectively. For the same molecule, the Ratio Ki with Malassezia globosa came out at 10.

The Ki is the equilibrium dissociation constant of an inhibitor or competing ligand from its target.
